In brackets after ≈: the same amount, converted by molar mass. Read-outs that look alike come from different tables or passages of the source. Values belong to the molecule of their own block, whether it stands above or below them.
Key:
HCC 202 cells = experiment: WST-8 growth inhibition of cultured breast cancer cells; type: cell-based, human; conditions: for IC50: Homo sapiens
Procedure: (§1) In another example, the expression of thymidylate synthase (TS) was correlated with the response of breast cancer cells to the chemotherapeutic drug 5-fluorouracil (5-FU). TS is a key enzyme in DNA biosynthesis and has been postulated to play a major role in predicting the response to 5-FU based chemotherapy. Experiments were conducted to examine this relationship. […] Doses ranged from 5-300 μg/ml.

SKBR-3 cells [1] = experiment: as above; type: cell-based, human; conditions: for IC50: Homo sapiens, SK-BR-3, 5-FU, doses ranged from 5-300 μg/ml
Procedure: as §1

T47D cells = experiment: as above; type: cell-based, human; conditions: for IC50: Homo sapiens
Procedure: as §1

HCC 2218 cells = experiment: as above; type: cell-based, human; conditions: for IC50: Homo sapiens
Procedure: as §1

HCC 38 cells = experiment: as above; type: cell-based, human; conditions: for IC50: Homo sapiens
Procedure: as §1

MCF-7 cells [2] = experiment: as above; type: cell-based, human; conditions: for IC50: Homo sapiens, MCF7, 5-FU, doses ranged from 5-300 μg/ml
Procedure: as §1

SKBR-3 cells [3] = experiment: as above; type: cell-based; conditions: Homo sapiens, SK-BR-3, 72 hours post treatment
MCF-7 cells [4] = experiment: as above; type: cell-based; conditions: Homo sapiens, 72 hours post treatment
MDA-MB231 cells = conditions: MDA-MB 231 cells
Procedure: For experimental conditions, cell suspensions containing 10^4 viable cells were plated into 96 well plates in 100 μl of media, and allowed to attach for 24 hours at 37° C. in a 5% CO2 atmosphere. After this incubation period, the cells were exposed to the drug at the designated doses, which were based on peak plasma concentration (PPC), as determined by published pharmacokinetic analyses. […] Media containing 0.5% FCS was then added to each well in order to maximize ER expression. Control wells contained 100 μl of the appropriate media and were treated identically to the test wells. At 72 hours post treatment, the plates were subjected to WST-8 analysis. WST-8 is a tetrazolium salt that is bioreduced by cellular dehydrogenases to yield a colored formazan product. The amount of the formazan product is directly proportional to the number of living cells. […] The absorbance of each well was measured at 460 nm using a Biotek microplate reader. For each concentration of drugs the mean absorbance±the SE was calculated. Results are expressed as % inhibition of growth compared with drug concentration. IC50 values will be determined using the median effect plot of (log fa/log fu) vs log C where fu=fraction unaffected, fa=fraction affected and C=drug concentration.

IC50 (HCC 202 cells; HCC202, 5-FU, HCC 202 cells, doses ranged from 5-300 μg/ml, read-out: IC50-1 FU): 181 µg/mL (≈ 1390 µM) | IC50 (HCC 202 cells; HCC202, 5-FU, HCC 202 cells, doses ranged from 5-300 μg/ml, read-out: IC50-2 FU): 162 µg/mL (≈ 1250 µM) | IC50 (SKBR-3 cells [1]; read-out: IC50-1 FU): 23.3 µg/mL (≈ 179 µM) | IC50 (SKBR-3 cells [1]; read-out: IC50-2 FU): 33.7 µg/mL (≈ 259 µM) | IC50 (T47D cells; 5-FU, doses ranged from 5-300 μg/ml, read-out: IC50-1 FU): 8.64 µg/mL (≈ 66.4 µM) | IC50 (T47D cells; 5-FU, doses ranged from 5-300 μg/ml, read-out: IC50-2 FU): 6.72 µg/mL (≈ 51.7 µM) | IC50 (HCC 2218 cells; HCC2218, 5-FU, HCC 2218 cells, doses ranged from 5-300 μg/ml, read-out: IC50-1 FU): 246 µg/mL (≈ 1890 µM) | IC50 (HCC 38 cells; HCC38, 5-FU, HCC 38 cells, doses ranged from 5-300 μg/ml, read-out: IC50-1 FU): 216 µg/mL (≈ 1660 µM) | IC50 (MCF-7 cells [2]; read-out: IC50-1 FU): 10 µg/mL (≈ 76.9 µM) | IC50 (MCF-7 cells [2]; read-out: IC50-2 FU): 15.2 µg/mL (≈ 117 µM)
SMILES: O=c1[nH]cc(F)c(=O)[nH]1 [5 Fluorouracil, 5-fluorouracil]
biological response to drug treatment (in words) (HCC 202 cells; HCC 202 cells): responded only to higher doses | biological response to drug treatment (in words) (SKBR-3 cells [1]): responding to lower doses | biological response to drug treatment (in words) (T47D cells): responding to lower doses | biological response to drug treatment (in words) (HCC 2218 cells; HCC 2218 cells): responded only to higher doses | biological response to drug treatment (in words) (HCC 38 cells; HCC 38 cells): responded only to higher doses | biological response to drug treatment (in words) (MCF-7 cells [2]): responding to lower doses

IC50 (HCC 202 cells; Docetaxel, HCC202 cells, 72 hours post treatment, read-out: IC50-1): 25.5 µg/mL (≈ 31.6 µM) | IC50 (HCC 202 cells; Docetaxel, HCC202 cells, 72 hours post treatment, read-out: IC50-2): 22 µg/mL (≈ 27.2 µM) | IC50 (T47D cells; Docetaxel, 72 hours post treatment, read-out: IC50-1): 5.5 µg/mL (≈ 6.81 µM) | IC50 (T47D cells; Docetaxel, 72 hours post treatment, read-out: IC50-2): 4.5 µg/mL (≈ 5.57 µM) | IC50 (HCC 2218 cells; HCC2218, Docetaxel, HCC 2218 cells, 72 hours post treatment, read-out: IC50-1): 25 µg/mL (≈ 30.9 µM) | IC50 (HCC 2218 cells; HCC2218, Docetaxel, HCC 2218 cells, 72 hours post treatment, read-out: IC50-2): 18 µg/mL (≈ 22.3 µM) | IC50 (HCC 38 cells; Docetaxel, HCC38 cells, 72 hours post treatment, read-out: IC50-1): 58 µg/mL (≈ 71.8 µM) | IC50 (HCC 38 cells; Docetaxel, HCC38 cells, 72 hours post treatment, read-out: IC50-2): 59.9 µg/mL (≈ 74.1 µM) | IC50 (SKBR-3 cells [3]; Docetaxel, SKBR3 cells, read-out: IC50-1): 6.6 µg/mL (≈ 8.17 µM) | IC50 (SKBR-3 cells [3]; Docetaxel, SKBR3 cells, read-out: IC50-2): 12.5 µg/mL (≈ 15.5 µM) | IC50 (MCF-7 cells [4]; MCF7, Docetaxel, read-out: IC50-1): 1 µg/mL (≈ 1.24 µM) | IC50 (MCF-7 cells [4]; MCF7, Docetaxel, read-out: IC50-2): 0.8 µg/mL (≈ 0.99 µM)
SMILES: CC(=O)O[C@@]12CO[C@@H]1C[C@H](O)[C@@]1(C)C(=O)[C@H](O)C3=C(C)[C@@H](OC(=O)[C@H](O)[C@@H](NC(=O)OC(C)(C)C)c4ccccc4)C[C@@](O)([C@@H](OC(=O)c4ccccc4)[C@H]21)C3(C)C [Docetaxel, docetaxel]
biological response to drug treatment (in words) (HCC 202 cells; HCC 202 cells): resistant | biological response to drug treatment (in words) (SKBR-3 cells [1]): sensitive | biological response to drug treatment (in words) (T47D cells): sensitive | biological response to drug treatment (in words) (HCC 2218 cells; HCC 2218 cells): response only to higher doses | biological response to drug treatment (in words) (HCC 38 cells; HCC 38 cells): response only to higher doses | biological response to drug treatment (in words) (MCF-7 cells [2]): sensitive

IC50 (HCC 202 cells; HCC202, Paclitaxel, HCC 202 cells, 72 hours post treatment, read-out: IC50-1): > 50 µg/mL | IC50 (HCC 202 cells; HCC202, Paclitaxel, HCC 202 cells, 72 hours post treatment, read-out: IC50-2): > 50 µg/mL | IC50 (T47D cells; Paclitaxel, 72 hours post treatment, read-out: IC50-1): 3 µg/mL (≈ 3.51 µM) | IC50 (T47D cells; Paclitaxel, 72 hours post treatment, read-out: IC50-2): 3.6 µg/mL (≈ 4.22 µM) | IC50 (HCC 2218 cells; Paclitaxel, HCC2218 cells, 72 hours post treatment, read-out: IC50-1): > 50 µg/mL | IC50 (HCC 2218 cells; Paclitaxel, HCC2218 cells, 72 hours post treatment, read-out: IC50-2): > 50 µg/mL | IC50 (HCC 38 cells; HCC38, Paclitaxel, HCC 38 cells, 72 hours post treatment, read-out: IC50-1): > 50 µg/mL | IC50 (HCC 38 cells; HCC38, Paclitaxel, HCC 38 cells, 72 hours post treatment, read-out: IC50-2): > 50 µg/mL | IC50 (SKBR-3 cells [3]; Paclitaxel, SKBR-3 cells, read-out: IC50-1): 10 µg/mL (≈ 11.7 µM) | IC50 (SKBR-3 cells [3]; Paclitaxel, SKBR-3 cells, read-out: IC50-2): 8.5 µg/mL (≈ 9.95 µM) | IC50 (MCF-7 cells [4]; MCF7, Paclitaxel, read-out: IC50-1): 6 µg/mL (≈ 7.03 µM) | IC50 (MCF-7 cells [4]; MCF7, Paclitaxel, read-out: IC50-2): 7.1 µg/mL (≈ 8.31 µM)
SMILES: CC(=O)O[C@H]1C(=O)[C@@]2(C)[C@H]([C@H](OC(=O)c3ccccc3)[C@]3(O)C[C@H](OC(=O)[C@H](O)[C@@H](NC(=O)c4ccccc4)c4ccccc4)C(C)=C1C3(C)C)[C@]1(OC(C)=O)CO[C@@H]1C[C@@H]2O [Paclitaxel, paclitaxel]
biological response to drug treatment (in words) (HCC 202 cells; HCC 202 cells): resistant | biological response to drug treatment (in words) (SKBR-3 cells [1]): sensitive | biological response to drug treatment (in words) (T47D cells): sensitive | biological response to drug treatment (in words) (HCC 2218 cells; HCC 2218 cells): displayed a response to PTX, but did not express an IC50 value | biological response to drug treatment (in words) (HCC 38 cells; HCC 38 cells): displayed a response to PTX, but did not express an IC50 value | biological response to drug treatment (in words) (MCF-7 cells [2]): sensitive

SMILES: CC/C(=C(\c1ccccc1)c1ccc(OCCN(C)C)cc1)c1ccccc1 [Tamoxifen, tamoxifen]
biological response to drug treatment (in words) (SKBR-3 cells [1]): much less sensitive response | biological response to drug treatment (in words) (MCF-7 cells [2]): high sensitivity | biological response to drug treatment (in words) (MDA-MB231 cells): much less sensitive response

From patent US20070071762A1, “COMPREHENSIVE DIAGNOSTIC TESTING PROCEDURES FOR PERSONALIZED ANTICANCER CHEMOTHERAPY (PAC)” (CCC Diagnostics, LLC, priority 2005, published 2007)
